In paper PMC3094066 (Molecular Systems Biology, 2011):

Biological target: human ADRB2 (Homo sapiens, UniProt P07550)
Test: Calcium mobilization assay
Type: cell-based
Conditions: in words; for ADRB2 antagonist activity: Figure 4B

Sequence of human ADRB2 (P07550 whole entry): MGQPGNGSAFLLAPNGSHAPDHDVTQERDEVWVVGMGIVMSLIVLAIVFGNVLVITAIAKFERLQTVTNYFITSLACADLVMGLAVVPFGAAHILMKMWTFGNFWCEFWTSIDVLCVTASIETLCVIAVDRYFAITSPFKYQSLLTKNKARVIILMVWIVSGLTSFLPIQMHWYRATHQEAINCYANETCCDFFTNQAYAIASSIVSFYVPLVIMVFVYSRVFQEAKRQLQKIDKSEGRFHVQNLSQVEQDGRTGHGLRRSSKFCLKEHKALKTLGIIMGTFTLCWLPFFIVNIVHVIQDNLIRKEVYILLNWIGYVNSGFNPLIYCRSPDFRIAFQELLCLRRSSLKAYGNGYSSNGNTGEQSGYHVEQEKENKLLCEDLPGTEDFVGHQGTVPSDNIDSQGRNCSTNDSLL

| Compound | ADRB2 agonist activity (Figure 4A) | ADRB2 antagonist activity |
| --- | --- | --- |
| Cc1ccc(-n2c(C)ccc2C)c2c1CC(C)(C)O2 [Compound 5, 2,5-Dimethyl-1-(2,2,4-trimethyl-2,3-dihydro-1-benzofuran-7-yl)-1H-pyrrole] | weak ADRB2 agonist activity | – |
| COCCCNCC(O)COc1cccc2[nH]c(C)cc12 (stereo not drawn) [Compound 33, 1-[(3-Methoxypropyl)amino]-3-[(2-methyl-1H-indol-4-yl)oxy]-2-propanol] | – | strong ADRB2 antagonist activity |
| Cc1cc2c(OCC(O)CNC(C)(C)C)cccc2[nH]1 (stereo not drawn) [Compound 8, 1-(tert-butylamino)-3-[(2-methyl-1H-indol-4-yl)oxy]-2-propanol, reference compound] | – | strong ADRB2 antagonist activity |
